According to patent US20030166005A1, “Test system for determining the activity of cyclo-nucleotide-dependent protein kinases and vasp phosphatases” (priority 2000, published 2003):

Key:
[1] = target: T1, cGK (Homo sapiens, UniProt Q13976); assay: biochemical
T1 sequence (Q13976 1-671): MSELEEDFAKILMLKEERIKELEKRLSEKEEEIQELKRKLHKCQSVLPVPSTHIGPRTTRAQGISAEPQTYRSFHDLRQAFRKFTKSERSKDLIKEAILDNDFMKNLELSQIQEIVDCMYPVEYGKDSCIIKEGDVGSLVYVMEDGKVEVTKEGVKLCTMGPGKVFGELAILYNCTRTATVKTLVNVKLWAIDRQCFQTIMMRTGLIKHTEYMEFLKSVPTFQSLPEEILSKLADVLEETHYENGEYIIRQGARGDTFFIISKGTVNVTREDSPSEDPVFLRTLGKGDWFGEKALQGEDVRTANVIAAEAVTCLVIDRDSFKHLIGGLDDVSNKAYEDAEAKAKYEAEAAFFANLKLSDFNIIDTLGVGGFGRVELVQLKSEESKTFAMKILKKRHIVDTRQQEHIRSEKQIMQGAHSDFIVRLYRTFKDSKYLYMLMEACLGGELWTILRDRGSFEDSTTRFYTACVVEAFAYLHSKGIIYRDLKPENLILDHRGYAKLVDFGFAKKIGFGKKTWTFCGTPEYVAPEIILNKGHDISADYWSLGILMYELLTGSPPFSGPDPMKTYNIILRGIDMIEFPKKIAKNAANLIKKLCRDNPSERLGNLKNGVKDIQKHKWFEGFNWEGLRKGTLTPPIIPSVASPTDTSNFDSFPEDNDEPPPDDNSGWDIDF
Description: Instead of carrying out a kinase reaction for the purpose of establishing and optimizing the detection system, a synthetic phosphopeptide (phosphorylated version of the VASP substrate peptide) was used as the “reaction product” and was quantified using a detection mix. In order to ascertain the linear measurement range, different mixtures of unphosphorylated peptide and phosphopeptide were prepared. When so doing, the total concentration of peptide was kept constant at 500 nmol/l. 50 μl of these mixtures were added to the wells of a 96-well microtest plate and in each case treated with 200 μl of a detection mix which contained the following reagents diluted in PBS:
The time-resolved FRET signal, when exciting the europium fluorescence at 340 nm and measuring the emission of the APC fluorescence at 660 nm, was measured, after incubating at 20° C. for 1 hour, using a PerkinElmer Wallac fluorescence-measuring instrument (Victor^2).
After the tubes had been preincubated at 30° C. for 5 minutes, the kinase reaction was started with 50 μmol of ATP/l, with subsequent incubation being at 30° C. All the above-mentioned concentrations are to be understood as meaning final concentrations in a volume of 500 μl. […] The phosphorylated substrate peptide was detected, as described in Example 1, in the wells of a 384-well microtest plate. […]

[2] = target: T1, cGK; assay: Influence of DMSO on the enzyme activity in the test system; assay type: biochemical; details: for Enzyme activity in cps/min: incubation period 10 min
Description: Most substances which are tested in an HTS are preferably dissolved in DMSO. However, many enzymes or test systems are very sensitive to DMSO. In order to determine the influence of DMSO on the test system according to the invention, phosphorylation kinetics, as described in Example 2 (cf. FIG. 2), were carried out in the presence of 0, 5, 10, 15 and 20% DMSO.

Row | EC50 [1] | Enzyme activity in cps/min ([2]; 5 percent by volume of DMSO) | Enzyme activity in cps/min ([2]; 10 percent by volume of DMSO) | Enzyme activity in cps/min ([2]; 15 percent by volume of DMSO) | Enzyme activity in cps/min ([2]; 20 percent by volume of DMSO) | influence on the reaction ([2]; up to 20 percent by volume of DMSO) | SMILES
1 | 100 nM | – | – | – | – | – | Nc1nc(=O)c2nc(Sc3ccc(Cl)cc3)n([C@@H]3O[C@@H]4COP(=O)(O)O[C@H]4[C@H]3O)c2[nH]1 [8-pCPT-cGMP]
2 | – | 2282 cps/min | 2253 cps/min | 2218 cps/min | 1988 cps/min | no significant influence | C[S+](C)[O-] [DMSO, dimethyl sulfoxide]
